Reference: US20250179073A1, “TRICYCLIC HETEROCYCLE COMPOUNDS AS IAP ANTAGONISTS” (Ascentage Pharma (Suzhou) Co., Ltd., priority 2022, published 2025)

What was measured:
EVSA-T cells = assay: Cell proliferation assay (CellTiter-Glo), EVSA-T; format: cell-based; conditions: Homo sapiens, EVSA-T, 72 h, 72 h treatment, Celltiter-Glo luminescence
How it was run: (§1)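 Compounds tested over ten concentrations ([…]) for 72 h on EVSA-T cells in MEM/10% FBS and MDA-MB-231 cells in RPMI-1640/10% FBS, seeded at 10000/well. Luminescent CellTiter-Glo readout; IC50 fitted after normalisation to controls.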

MDA-MB-231 cells = assay: Cell proliferation assay (CellTiter-Glo), MDA-MB-231; format: cell-based; conditions: Homo sapiens, MDA-MB-231, 72 h, 72 h treatment, Celltiter-Glo luminescence
How it was run: as §1

Row | SMILES | IC50 (MDA-MB-231 cells) [nM] | IC50 (EVSA-T cells) [nM]
1 | C[C@@H]1CN(CC(=O)N2CC(C)(C)c3c2cc(Cc2ccc(F)cc2)c2nn(CC(O)C4CC4)c(=O)n32)[C@@H](CN2CCOC[C@H]2C)CN1 (stereo partly drawn) [Compound 270, 2-(2-cyclopropyl-2-hydroxyethyl)-4-(4-fluorobenzyl)-8,8-dimethyl-6-(2-((2R,5R)-5-methyl-2-(((R)-3-methylmorpholino)methyl)piperazin-1-yl)acetyl)-2,6,7,8-tetrahydro-1H-pyrrolo[2,3-e][1,2,4]triazolo[4,3-a]pyridin-1-one] | 51 | 11.5
2 | C[C@@H]1CN(CC(=O)N2CC(C)(C)c3c2cc(Cc2ccc(F)cc2)c2nc(C(F)(F)F)cn32)[C@@H](CN2CCOC[C@H]2CF)CN1 [Compound 167, 1-(4-(4-fluorobenzyl)-8,8-dimethyl-2-(trifluoromethyl)-7,8-dihydro-6H-imidazo[1,2-a]pyrrolo[2,3-e]pyridin-6-yl)-2-((2R,5R)-2-((3-(fluoromethyl)morpholino)methyl)-5-methylpiperazin-1-yl)ethan-1-one] | 120 | 16
3 | C[C@@H]1CN(CC(=O)N2CC(C)(C)c3c2cc(Cc2ccc(F)cc2)c2nc(C(F)(F)F)cn32)[C@@H](CN2CCOCC23CC3)CN1 [Compound 147, 2-((2R,5R)-2-((7-oxa-4-azaspiro[2.5]octan-4-yl)methyl)-5-methylpiperazin-1-yl)-1-(4-(4-fluorobenzyl)-8,8-dimethyl-2-(trifluoromethyl)-7,8-dihydro-6H-imidazo[1,2-a]pyrrolo[2,3-e]pyridin-6-yl)ethan-1-one] | 120 | 10
4 | C[C@@H]1CN(CC(=O)N2CC(C)(C)c3c2cc(Cc2ccc(F)cc2)c2ncc(Br)n32)[C@@H](CN2CCOC[C@H]2C)CN1 [Compound 119, 1-(1-bromo-4-(4-fluorobenzyl)-8,8-dimethyl-7,8-dihydro-6H-imidazo[1,2-a]pyrrolo[2,3-e]pyridin-6-yl)-2-((2R,5R)-5-methyl-2-(((R)-3-methylmorpholino)methyl)piperazin-1-yl)ethan-1-one] | 100 | 6
5 | Cc1cc(F)ccc1Cc1cc2c(n3ncnc13)C(C)(C)CN2C(=O)CN1C[C@@H](C)NC[C@@H]1CN1CCOC[C@H]1C [Compound 115, 1-(4-(4-fluoro-2-methylbenzyl)-8,8-dimethyl-7,8-dihydro-6H-pyrrolo[2,3-e][1,2,4]triazolo[1,5-a]pyridin-6-yl)-2-((2R,5R)-5-methyl-2-(((R)-3-methylmorpholino)methyl)piperazin-1-yl)ethan-1-one] | 160 | 30
6 | C[C@@H]1CN(CC(=O)N2CC(C)(C)c3c2cc(Cc2ccc(F)cc2)c2nc(CO)nn32)[C@@H](CN2CCOC[C@H]2C)CN1 [Compound 37, 1-(4-(4-fluorobenzyl)-2-(hydroxymethyl)-8,8-dimethyl-7,8-dihydro-6H-pyrrolo[2,3-e][1,2,4]triazolo[1,5-a]pyridin-6-yl)-2-((2R,5R)-5-methyl-2-(((R)-3-methylmorpholino)methyl)piperazin-1-yl)ethan-1-one] | 71 | 4
7 | CC(O)c1nc2c(Cc3ccc(F)cc3)cc3c(n2n1)C(C)(C)CN3C(=O)CN1C[C@@H](C)NC[C@@H]1CN1CCOC[C@H]1C (stereo partly drawn) [Compound 154, 1-(4-(4-fluorobenzyl)-2-(1-hydroxyethyl)-8,8-dimethyl-7,8-dihydro-6H-pyrrolo[2,3-e][1,2,4]triazolo[1,5-a]pyridin-6-yl)-2-((2R,5R)-5-methy 1-2-(((R)-3-methylmorpholino)methyl)piperazin-1-yl)ethan-1-one] | 100 | 5
8 | C[C@@H]1CN(CC(=O)N2CC(C)(C)c3c2cc(Cc2ccc(F)cc2)c2nnc(C4CC4)n32)[C@@H](CN2CCOC[C@H]2C)CN1 [Example 12, 1-(1-cyclopropyl-4-(4-fluorobenzyl)-8,8-dimethyl-7,8-dihydro-6H-pyrrolo[2,3-e][1,2,4]triazolo[4,3-a]pyridin-6-yl)-2-((2R,5R)-5-methyl-2-(((R)-3-methylmorpholino)methyl)piperazin-1-yl)ethan-1-one] | 190 | 12
9 | C[C@@H]1CN(CC(=O)N2CC(C)(C)c3c2cc(Cc2ccc(F)cc2)c2nc(C(F)(F)F)cn32)[C@@H](CN2CCN(CC(F)(F)F)C[C@H]2C)CN1 [Compound 179, 1-(4-(4-fluorobenzyl)-8,8-dimethyl-2-(trifluoromethyl)-7,8-dihydro-6H-imidazo[1,2-a]pyrrolo[2,3-e]pyridin-6-yl)-2-((2R,5R)-5-methyl-2-(((R)-2-methyl-4-(2,2,2-trifluoroethyl)piperazin-1-yl)methyl)piperazin-1-yl)ethan-1-one] | 180 | 15

These reach a lower IC50 (MDA-MB-231 cells). Values come first.

Row | IC50 (MDA-MB-231 cells) [nM] | SMILES | IC50 (EVSA-T cells) [nM]
10 | 38 | C[C@@H]1CN(CC(=O)N2CC(C)(C)c3c2cc(Cc2ccc(F)cc2)c2nn(-c4ncccn4)c(=O)n32)[C@@H](CN2CCOC[C@H]2C)CN1 [Compound 230, 4-(4-fluorobenzyl)-8,8-dimethyl-6-(2-((2R,5R)-5-methyl-2-(((R)-3-methylmorpholino)methyl)piperazin-1-yl)acetyl)-2-(pyrimidin-2-yl)-2,6,7,8-tetrahydro-1H-pyrrolo[2,3-e][1,2,4]triazolo[4,3-a]pyridin-1-one] | 8
11 | 23 | C[C@@H]1CN(CC(=O)N2CC(C)(C)c3c2cc(Cc2ccc(F)cc2)c2nn(C4CCC4O)c(=O)n32)[C@@H](CN2CCOC[C@H]2C)CN1 (stereo partly drawn) [Compound 273A, 4-(4-fluorobenzyl)-2-(2-hydroxycyclobutyl)-8,8-dimethyl-6-(2-((2R,5R)-5-methyl-2-(((R)-3-methylmorpholino)methyl)piperazin-1-yl)acetyl)-2,6,7,8-tetrahydro-1H-pyrrolo[2,3-e][1,2,4]triazolo[4,3-a]pyridin-1-one] | 1.24
12 | 23 | C[C@@H]1CN(CC(=O)N2CC(C)(C)c3c2cc(Cc2ccc(F)cc2)c2ncnn32)[C@@H](CN2Cc3ccc(F)cc3C2=O)CN1 [Compound 101, 6-fluoro-2-(((2R,5R)-1-(2-(4-(4-fluorobenzyl)-8,8-dimethyl-7,8-dihydro-6H-pyrrolo[2,3-e][1,2,4]triazolo[1,5-a]pyridin-6-yl)-2-oxoethyl)-5-methylpiperazin-2-yl)methyl)isoindolin-1-one] | 8
13 | 20 | C[C@@H]1CN(CC(=O)N2CC(C)(C)c3c2cc(Cc2ccc(F)cc2)c2nc(N4CC(O)C4)nn32)[C@@H](CN2CCOC[C@H]2C)CN1 [Compound 159, 1-(4-(4-fluorobenzyl)-2-(3-hydroxyazetidin-1-yl)-8,8-dimethyl-7,8-dihydro-6H-pyrrolo[2,3-e][1,2,4]triazolo[1,5-a]pyridin-6-yl)-2-((2R,5R)-5-methyl-2-(((R)-3-methylmorpholino)methyl)piperazin-1-yl)ethan-1-one] | 4
14 | 20 | COc1nc2c(Cc3ccc(F)cc3)cc3c(n2n1)C(C)(C)CN3C(=O)CN1C[C@@H](C)NC[C@@H]1CN1CCOC[C@H]1C [Compound 126, 1-(4-(4-fluorobenzyl)-2-methoxy-8,8-dimethyl-7,8-dihydro-6H-pyrrolo[2,3-e][1,2,4]triazolo[1,5-a]pyridin-6-yl)-2-((2R,5R)-5-methyl-2-(((R)-3-methylmorpholino)methyl)piperazin-1-yl)ethan-1-one] | 3
15 | 18 | C[C@@H]1CN(CC(=O)N2CC(C)(C)c3c2cc(Cc2ccc(F)cc2)c2nc(C4COCCO4)nn32)[C@@H](CN2CCOC[C@H]2C)CN1 (stereo partly drawn) [Compound 206, 1-(2-(1,4-dioxan-2-yl)-4-(4-fluorobenzyl)-8,8-dimethyl-7,8-dihydro-6H-pyrrolo[2,3-e][1,2,4]triazolo[1,5-a]pyridin-6-yl)-2-((2R,5R)-5-methyl-2-(((R)-3-methylmorpholino)methyl)piperazin-1-yl)ethan-1-one] | 2
16 | 16 | C[C@@H]1CN(CC(=O)N2CC(C)(C)c3c2cc(Cc2ccc(F)cc2)c2nn(CC(C)(C)O)c(=O)n32)[C@@H](CN2CCN(CC(F)(F)F)C[C@H]2C)CN1 [Compound 266, 4-(4-fluorobenzyl)-2-(2-hydroxy-2-methylpropyl)-8,8-dim ethyl-6-(2-((2R,5R)-5-methyl-2-(((R)-2-methyl-4-(2,2,2-trifluoroethyl)piperazin-1-yl)methyl)piperazin-1-yl)acetyl)-2,6,7,8-tetrahydro-1H-pyrrolo[2,3-e][1,2,4]triazolo[4,3-a]pyridin-1-one] | 4.9
17 | 15 | C[C@@H]1CN(CC(=O)N2CC(C)(C)c3c2cc(Cc2ccc(F)cc2)c2nn(CC(F)F)c(=O)n32)[C@@H](CN2CCOC[C@H]2C)CN1 [Compound 264, 2-(2,2-difluoroethyl)-4-(4-fluorobenzyl)-8,8-dimethyl-6-(2-((2R,5R)-5-methyl-2-(((R)-3-methylmorpholino)methyl)piperazin-1-yl)acetyl)-2,6,7,8-tetrahydro-1H-pyrrolo[2,3-e][1,2,4]triazolo[4,3-a]pyridin-1-one] | 4.7
18 | 12.5 | C[C@@H]1CN(CC(=O)N2CC(C)(C)c3c2cc(Cc2ccc(F)cc2)c2nn(CC4(O)CCC4)c(=O)n32)[C@@H](CN2CCOC[C@H]2C)CN1 [Compound 262, 4-(4-fluorobenzyl)-2-((1-hydroxycyclobutyl)methyl)-8,8-dimethyl-6-(2-((2R,5R)-5-methyl-2-(((R)-3-methylmorpholino)methyl)piperazin-1-yl)acetyl)-2,6,7,8-tetrahydro-1H-pyrrolo[2,3-e][1,2,4]triazolo[4,3-a]pyridin-1-one] | 1.3
19 | 10 | C[C@@H]1CN(CC(=O)N2CC(C)(C)c3c2cc(Cc2ccc(F)cc2)c2ncnn32)[C@@H](CN2CCN(C3COC3)C[C@H]2C)CN1 [Compound 203, 1-(4-(4-fluorobenzyl)-8,8-dimethyl-7,8-dihydro-6H-pyrrolo[2,3-e][1,2,4]triazolo[1,5-a]pyridin-6-yl)-2-((2R,5R)-5-methyl-2-(((R)-2-methyl-4-(oxetan-3-yl)piperazin-1-yl)methyl)piperazin-1-yl)ethan-1-one] | 3
